In patent US20100184809A1, “Heterocyclic FXR Binding Compounds” (PHENEX PHARMACEUTICALS AG, priority 2006, published 2010):
Converted amounts (≈) assume the structure as drawn.

How the values were obtained:
[1] = Pharmacokinetic parameters in C57/BLKS/J(mLepr^db/db) mice (plasma concentration after peroral gavage); format: in vivo; details: mouse, oral, perorally by gavage 25 mg/kg, male C57/BLKS/J(mLepr^db/db) mice, read-out: mean plasma conc.
Experimental: Information on the rate and extent of absorption of the test compounds were generated using two distinct animal models, C57/BI/6J and C57/BLKS/J(mLepr^db/db) mice. Compounds were applied perorally by gavage at 10 mg/kg each to male 8 weeks old C57BL/6 mice and plasma concentrations of the test items were determined by LC-MS/MS (Table 11). Alternatively, compounds were applied perorally by gavage at 25 mg/kg each to 16 weeks old male C57/BLKS/J(mLepr^db/db) mice and plasma concentrations of the test items were determined 120 min after gavage by LC-MS/MS (Table 12).
A solution of 20 mg/ml of each test item was produced by diluting them in the vehicle, 30% HPBCD (hydroxypropyl-beta-cyclodextrin) in 20 mM phosphate buffer pH7.0 (v/w). These solutions were stirred overnight at room temperature and heated to 60° C. for 10 minutes, resulting in a full solubilization. The application was performed by administrating the solution perorally to the mice, with an application volume of 10 ml/kg. For each time point five mice were used. Blood samples were obtained by sacrificing animals for each time point followed by cardiac puncture. […] An aliquot of the particle-free supernatant was transferred to 200 μl sampler vials and subsequently subjected to LC MS/MS for quantification.

[2] = Aqueous solubility assay, Protocol B, shake-flask method; format: physicochemical; details: aqueous buffer, 10 mM PBS buffer pH 7.4, 1% MeOH, room temperature, read-out: Aqueous solubility pH 7.4 (μM) (±standard deviation), shake-flask method
Experimental: Protocol B, shake-flask method:
Sample preparation: Sample and standard solution preparation is performed by mixing equal volumes of acetonitrile containing the internal standard (1 μM final concentration) with sample and calibration standard solutions (100 μl). After vigorously shaking (10 seconds) the samples are centrifuged (6000 g) for 5 minutes at 20° C. Aliquots of the particle-free supernatants are transferred to 200 μl sample vials and subsequently subjected to LC-MS/MS. Assay procedure: Test concentration was 100 μM in 10 mM PBS buffer pH 7.4 with a final MeOH concentration of 1%. The volume of the incubation solution was 500 μl. Depending on each compound's solubility in MeOH, the stock concentration and the incubation concentration was adapted. The test solutions in quadruplicates were shaken at 300 rpm over a 20 hours period at room temperature, followed by centrifugation at 20000 g for 30 minutes to separate the solid phase. 100 μl of particle free sample are added to 100 μl acetonitrile containing the internal standard. The aqueous solubility of the compounds was determined by measuring the concentration of the PBS buffer supernatant by HPLC-MS/MS.

[3] = Mouse microsomal stability assay; format: in vitro ADME; details: pH 7.4; mouse liver microsomes, 37° C.
Experimental: In vitro assays were performed to evaluate the metabolic stability of test items in liver microsomes originating from mouse. Preparation of working standards of test items: Working solutions were prepared for each calibration level by appropriate dilution of the corresponding stock solution, depending on each compound's solubility in acetonitrile or acetonitrile/water. Calibration standards were prepared by spiking 196 μl standard matrix with 4 μl of the corresponding working solution. The standard matrix consists of 0.15 mg/ml of microsomal protein in phosphate buffer (100 mM pH 7.4), the final standard solutions contain 2% acetonitrile. The samples and standard solutions were extracted with ethyl acetate, isolation of the compounds was performed by addition of 600 μl ethyl acetate containing the internal standard (0.1 μM) to 200 μl sample and calibration standard. After vigorously shaking (10 minutes) and centrifugation (5000 g) the aqueous phase was separated by freezing in an acetone/dry ice bath and the organic phase is evaporated to dryness using a vacuum centrifuge. Samples were reconstituted in 200 μl acetonitrile/water mix (1:1 v/v) and subsequently subjected to LC-MS/MS. The incubation solution (180 μl) consisted of 90 μl of a microsomal suspension of 0.33 mg/ml of protein in phosphate buffer 100 mM pH 7.4 and 90 μl NADP-regenerating system. The reaction was initiated by the addition of 20 μl of test compound (in 20% acetonitrile) to the preincubated microsomes/buffer mix at 37° C. 200 μl samples were removed from the incubation after 0, 5, 10, and 30 minutes and processed for ethyl acetate extraction as described above. Negative controls using boiled microsomes (boiling water bath, 25 minutes) without regenerating system were run in parallel. The amount of compound in the samples is expressed as percentage of remaining compound compared to time point zero (=100%). These percentages were plotted against the corresponding time points. Intrinsic clearance (CLint) and half-life (t1/2) estimates were determined using the rate of parent disappearance and following formula (1) and (2). (1) CLint=(−k)×V×fu. (2) t1/2=In2/−k. Where CLint=intrinsic clearance [μl/min/mg protein], t1/2=half life [min], k=slope from the linear regression of log [test compound] versus time plot [1/min]. V=6666.7; fu=unbound fraction in the blood. Applying this protocol gave microsomal stabilities for examples and reference compounds as listed below in Table 9: […]

| Compound | concentration at 120 min [1] [ng/mL] | solubility at 20 h [2] [µM] | melting point [°C] | half-life [3] [min] | microsomal CLint [3] [µL/min/mg] |
| --- | --- | --- | --- | --- | --- |
| CC(C)c1onc(-c2c(Cl)cccc2Cl)c1COc1ccc(/C=C/c2cccc(C(=O)O)c2)c(Cl)c1 [Compound B, reference compound] | 164 | 17.7 (≈ 9.61 µg/mL) |  |  |  |
| CC(C)c1onc(-c2c(Cl)cccc2Cl)c1COc1ccc(N(C)Cc2ccc(C(=O)O)cc2)c(C(F)(F)F)n1 [Example 28, 4(((6-((3-(2,6-Dichlorophenyl)-5-isopropylisoxazol-4-yl)methoxy)-2-(trifluoromethyl)pyridin-3-yl)(methyl)amino)methyl)benzoic acid] | 287 |  | 96.1 to 97.1 | 38 | 120 |
